In one assay the target is T1, rat intestinal DPP-IV (Rattus norvegicus, UniProt P14740).
T1 construct: 10 μL of rat intestinal DPP-IV (0.1 U/mL in the assay); from tissue; host or cells: rat intestine
The experiment in a line: In vitro DPP-IV inhibitory activity of synthetic peptides. Type of assay: biochemical. To be noted: rat intestinal DPP-IV 0.1 U/mL; 0.1 mol/L Tris-HCl pH 7.0; 20 min pre-incubation at 37 °C; glycine-proline-p-nitroanilide 6.4 mmol/L (5 μL); 20 min reaction at 37 °C; absorbance 405 nm; mean ± SD, three replicates; read-out: IC50 value for DPP-IV inhibition. The procedure:
Selected synthetic peptides (Bio-Fab Research, Rome, Italy) were then tested for their DPP-IV-inhibitory activity as reported in Tagliazucchi et al.. Briefly, 145 μL of 0.1 mol/L Tris-HCl buffer (pH 7.0) were mixed with 10 μL of rat intestinal DPP-IV (0.1 U/mL in the assay) and 40 μL of synthetic peptides at different concentrations, in a 96-well plate. The reaction was started after 20 min of pre-incubation at 37 °C by the addition of 5 μL of 6.4 mmol/L glycine-proline-p-nitroanilide. After a further 20 min of reaction at 37 °C, the amount of released p-nitroanilide was measured by reading the absorbance at 405 nm in a microplate reader. Results were expressed as IC50 values (peptide concentration that inhibit the 50% of the enzymatic activity) by plotting the peptide concentration (base-10 logarithm) as a function of the enzyme inhibition percentage.
All data are reported as mean ± standard deviation (SD) for three replicates for each prepared sample. GraphPad Prism 6.0 (GraphPad Software, San Diego, CA, USA) was used for univariate analysis of variance (ANOVA) with Tukey post-hoc test. The differences were considered significant when p < 0.05.

Assay [1] relates to Dipeptidyl peptidase IV (DPP-IV). Conditions: Parmigiano Reggiano peptides, previous study; cited from earlier work. The text has this: Table 1 Peptides with previously reported biological activity identified in in vitro-digested Pinto bean protein extract. | column: Bioactivity ^1 || The described approach was applied in a previous study on Parmigiano Reggiano samples allowing the selection of 6 candidates to be tested in vitro starting from a pool of 415 peptides identified by peptidomics techniques. […] The high inhibitory potency of SAPI was probably due to the combined presence of an A residue in second position and a P residue in third position. […] The PepSite2 server was used to predict the possible interaction between SAPI and the DPP-IV binding sites by analyzing the enzyme active site residues closer to the peptide amino ...

Peptide text beside a SMILES is read from it.

The source of these data is publication PMC8929122, “Application of a Combined Peptidomics and In Silico Approach for the Identification of Novel Dipeptidyl Peptidase-IV-Inhibitory Peptides in In Vitro Digested Pinto Bean Protein Extract” (Current Issues in Molecular Biology, 2021).

T1 sequence (P14740 whole entry): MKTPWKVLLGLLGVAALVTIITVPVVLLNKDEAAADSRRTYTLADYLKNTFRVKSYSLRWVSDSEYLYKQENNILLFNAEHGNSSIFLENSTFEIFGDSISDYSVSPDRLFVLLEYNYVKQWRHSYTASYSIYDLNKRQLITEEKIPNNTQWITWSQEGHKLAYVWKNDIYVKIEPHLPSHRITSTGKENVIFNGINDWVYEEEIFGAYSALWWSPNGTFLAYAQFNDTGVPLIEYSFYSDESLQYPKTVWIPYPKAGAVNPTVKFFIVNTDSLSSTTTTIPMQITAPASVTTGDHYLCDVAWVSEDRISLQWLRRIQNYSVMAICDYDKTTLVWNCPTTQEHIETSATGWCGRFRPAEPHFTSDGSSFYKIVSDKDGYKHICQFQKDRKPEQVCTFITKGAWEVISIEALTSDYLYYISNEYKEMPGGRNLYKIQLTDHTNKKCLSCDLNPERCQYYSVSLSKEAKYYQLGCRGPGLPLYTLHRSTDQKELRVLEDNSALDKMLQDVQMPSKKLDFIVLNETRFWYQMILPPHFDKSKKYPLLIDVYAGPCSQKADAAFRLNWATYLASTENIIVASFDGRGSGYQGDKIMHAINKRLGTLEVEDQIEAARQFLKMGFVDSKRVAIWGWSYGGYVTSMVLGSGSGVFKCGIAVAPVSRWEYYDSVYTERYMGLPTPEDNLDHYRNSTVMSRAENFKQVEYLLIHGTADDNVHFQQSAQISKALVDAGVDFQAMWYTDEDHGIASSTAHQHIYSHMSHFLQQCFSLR

In general, IC50 refers to the concentration at which inhibition is half-maximal. On to `CC(C)[C@H](NC(=O)[C@@H](N)Cc1ccccc1)C(=O)N1CCC[C@H]1C(=O)N[C@@H](Cc1c[nH]cn1)C(=O)O` [FVPH] (H-FVPH-OH), for which, on rat intestinal DPP-IV, the 50% inhibitory concentration (IC50) came to 480.6 ± 2.1 µM.
Still for that read-out and setting: the value for `CC[C@H](C)[C@H](NC(=O)[C@@H]1CCCN1C(=O)[C@H](C)NC(=O)[C@@H](N)CO)C(=O)O` [SAPI] (H-SAPI-OH) was 57.7 µM; that for `CC[C@H](C)[C@H](NC(=O)[C@@H](N)CO)C(=O)N1CCC[C@H]1C(=O)N[C@@H](CCCNC(=N)N)C(=O)O` [SIPR] (H-SIPR-OH) was 189 ± 1.5 µM.
On to APFPE, for which, in assay [1], the “DPP-IV inhibition (in words)” value is reported as “novel potent DPP-IV inhibitor”.
